Measured values published in patent US7018807B2, “Method and medium for detecting vancomycin-resistant enterococcus” (priority 1996, dated 2006).

How the values were obtained:
Test in all cases: MIC for vancomycin
Assay type in all cases: cell-based
[1] = test system: Enterococcus faecium VRE06; settings: strain VRE06, read-out: MIC (minimum inhibitory concentration for vancomycin)
[2] = test system: Enterococcus faecium VRE04; settings: strain VRE04, read-out: MIC (minimum inhibitory concentration for vancomycin)
[3] = test system: Enterococcus faecium VRE05; settings: strain VRE05, read-out: MIC (minimum inhibitory concentration for vancomycin)
[4] = test system: Enterococcus faecium VRE02; settings: VRE02, read-out: MIC (minimum inhibitory concentration for vancomycin)
[5] = test system: Enterococcus faecium VRE07; settings: strain VRE07, read-out: MIC (minimum inhibitory concentration for vancomycin)
[6] = test system: Enterococcus faecium VRE03; settings: strain VRE03, read-out: MIC (minimum inhibitory concentration for vancomycin)

Measured: MIC

CN[C@H](CC(C)C)C(=O)N[C@H]1C(=O)N[C@@H](CC(N)=O)C(=O)N[C@H]2C(=O)N[C@H]3C(=O)N[C@H](C(=O)N[C@H](C(=O)O)c4cc(O)cc(O)c4-c4cc3ccc4O)[C@H](O)c3ccc(c(Cl)c3)Oc3cc2cc(c3O[C@@H]2O[C@H](CO)[C@@H](O)[C@H](O)[C@H]2O[C@H]2C[C@](C)(N)[C@H](O)[C@H](C)O2)Oc2ccc(cc2Cl)[C@H]1O [vancomycin]
> 256 µg/mL: [1] | [2] | [3] | [4] | [5] | [6]
